From US20230340011A1 (Asteroid Therapeutics, priority 2022, published 2023)

Experiments:
[1] = molecular target: LXRβ (Homo sapiens (Human), UniProt P55055); test: In vitro assay LXRβ: PathHunter NHR CHO cells, LXRβ / Steroid Receptor Co-activator Peptide enzyme fragment complementation; type: cell-based; details: PathHunter NHR CHO cells, full-length human LXRβ and SRCP, chemiluminescent signal; read-out: LXRβ PPI
Method in brief: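 Enzyme fragment complementation read-out: CHO cells stably expressing ProLink-tagged full-length human LXRβ plus nuclear enzyme acceptor–SRCP fusion, seeded and held overnight at 37° C. Medium with charcoal-dextran filtered serum; final vehicle 1%. Chemiluminescence measured after signal generation.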

[2] = molecular target: SREBP-2 (Homo sapiens (Human), UniProt Q12772); test: In vitro assay SREBP-2: PathHunter U2OS SREBP-2 Nuclear Translocation Cell Line, U18666A-stimulated; type: cell-based; details: PathHunter U2OS SREBP-2 nuclear translocation cells, U18666A 10 μM, overnight (16 hours)

LXRβ, sequence (P55055 whole entry, the tested form may be a part): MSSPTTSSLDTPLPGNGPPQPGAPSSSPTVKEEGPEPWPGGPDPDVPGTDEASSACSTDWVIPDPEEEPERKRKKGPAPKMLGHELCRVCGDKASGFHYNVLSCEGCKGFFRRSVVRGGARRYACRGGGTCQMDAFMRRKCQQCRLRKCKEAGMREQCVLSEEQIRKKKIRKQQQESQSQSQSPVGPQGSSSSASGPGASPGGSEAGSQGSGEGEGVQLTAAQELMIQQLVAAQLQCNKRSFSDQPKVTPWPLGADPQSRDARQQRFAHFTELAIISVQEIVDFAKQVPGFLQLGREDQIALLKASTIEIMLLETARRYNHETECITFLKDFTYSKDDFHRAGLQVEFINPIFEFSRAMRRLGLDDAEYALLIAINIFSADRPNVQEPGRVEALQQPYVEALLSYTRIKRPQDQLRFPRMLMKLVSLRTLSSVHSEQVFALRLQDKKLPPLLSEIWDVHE

| Compound | EC50 [1] [µM] | IC50 [2] [nM] |
| --- | --- | --- |
| C[C@H](CCC(=O)N1CCN(C(=O)N2CCCC2)[C@@H](C)C1)[C@H]1CC[C@H]2[C@@H]3CC=C4C[C@@H](O)CC[C@]4(C)[C@H]3CC[C@]12C [Example 654, (4R)-4-[(1R,3aS,3bS,7S,9aR,9bS,11aR)-7-hydroxy-9a,11a-dimethyl-1H,2H,3H,3aH,3bH,4H,6H,7H,8H,9H,9aH,9bH,10H,11H,11aH-cyclopenta[a]phenanthren-1-yl]-1-[(3 S)-3-methyl-4-(pyrrolidine-1-carbonyl)piperazin-1-yl]pentan-1-one] | > 10 | < 250 |
| C[C@H](CCC(=O)N1CCC(C)(NS(C)(=O)=O)CC1)[C@H]1CC[C@H]2[C@@H]3CC=C4C[C@@H](O)CC[C@]4(C)[C@H]3CC[C@]12C [Example 84, N-(1-((R)-4-((3S,8S,9S,10R,13R,14S,17R)-3-hydroxy-10,13-dimethyl-2,3,4,7,8,9,10,11,12,13,14,15,16,17-tetradecahydro-1H-cyclopenta[a]phenanthren-17-yl)pentanoyl)-4-methylpiperidin-4-yl)methanesulfonamide] | > 10 | 250 to 1000 |
| C[C@H](COc1cccc(CO)n1)[C@H]1CC[C@H]2[C@@H]3CC=C4C[C@@H](O)CC[C@]4(C)[C@H]3CC[C@]12C [Example 260, (3S,8S,9S,10R,13S,14S,17R)-17-((S)-1-((6-(hydroxymethyl)pyridin-2-yl)oxy)propan-2-yl)-10,13-dimethyl-2,3,4,7,8,9,10,11,12,13,14,15,16,17-tetradecahydro-1H-cyclopenta[a]phenanthren-3-ol] | > 10 | < 250 |
| COc1cncc(N2CCN(C(=O)CC[C@@H](C)[C@H]3CC[C@H]4[C@@H]5CC=C6C[C@@H](O)CC[C@]6(C)[C@H]5CC[C@]34C)CC2)n1 [Example 662, (R)-4-((3S,8S,9S,10R,13R,14S,17R)-3-hydroxy-10,13-dimethyl-2,3,4,7,8,9,10,11,12,13,14,15,16,17-tetradecahydro-1H-cyclopenta[a]phenanthren-17-yl)-1-(4-(6-methoxypyrazin-2-yl)piperazin-1-yl)pentan-1-one] | > 10 | < 250 |
| CON(CCN)C(=O)CC[C@@H](C)[C@H]1CC[C@H]2[C@@H]3CC=C4C[C@@H](O)CC[C@]4(C)[C@H]3CC[C@]12C [Example 64, (R)—N-(2-aminoethyl)-4-((3S,8S,9S,10R,13R,14S,17R)-3-hydroxy-10,13-dimethyl-2,3,4,7,8,9,10,11,12,13,14,15,16,17-tetradecahydro-1H-cyclopenta[a]phenanthren-17-yl)-N-methoxypentanamide] | < 0.25 | 250 to 1000 |
| C[C@H](CCC(=O)N1CCN(c2ccnc(N(C)C)n2)CC1)[C@H]1CC[C@H]2[C@@H]3CC=C4C[C@@H](O)CC[C@]4(C)[C@H]3CC[C@]12C [Example 562, (R)-1-(4-(2-(dimethylamino)pyrimidin-4-yl)piperazin-1-yl)-4-((3S,8S,9S,10R,13R,14S,17R)-3-hydroxy-10,13-dimethyl-2,3,4,7,8,9,10,11,12,13,14,15,16,17-tetradecahydro-1H-cyclopenta[a]phenanthren-17-yl)pentan-1-one] | > 10 | < 250 |
| C[C@H](CCC(=O)N1CCN(C(=O)C(C)(C)O)[C@@H](C)C1)[C@H]1CC[C@H]2[C@@H]3CC=C4C[C@@H](O)CC[C@]4(C)[C@H]3CC[C@]12C [Example 652, (4R)-4-[(1R,3aS,3bS,7S,9aR,9bS,11aR)-7-hydroxy-9a,11a-dimethyl-1H,2H,3H,3aH,3bH,4H,6H,7H,8H,9H,9aH,9bH,10H,11H, 11 aH-cyclopenta[a]phenanthren-1-yl]-1-[(3 S)-4-(2-hydroxy-2-methylpropanoyl)-3-methylpiperazin-1-yl]pentan-1-one] | > 10 | < 250 |
| C[C@H](CCC(=O)N1CCN(C(=O)c2cnn(C)c2)CC1)[C@H]1CC[C@H]2[C@@H]3CC=C4C[C@@H](O)CC[C@]4(C)[C@H]3CC[C@]12C [Example 309, (4R)-4-[(1R,3aS,3bS,7S,9aR,9bS,11aR)-7-hydroxy-9a,11a-dimethyl-1H,2H,3H,3aH,3bH,4H,6H,7H,8H,9H,9aH,9bH,10H,11H,11aH-cyclopenta[a]phenanthren-1-yl]-1-[4-(1-methyl-1H-pyrazole-4-carbonyl)piperazin-1-yl]pentan-1-one] | > 10 | < 250 |
| COc1ccnc(N2CCN(C(=O)CC[C@@H](C)[C@H]3CC[C@H]4[C@@H]5CC=C6C[C@@H](O)CC[C@]6(C)[C@H]5CC[C@]34C)CC2)c1 [Example 657, (R)-4-((3S,8S,9S,10R,13R,14S,17R)-3-hydroxy-10,13-dimethyl-2,3,4,7,8,9,10,11,12,13,14,15,16,17-tetradecahydro-1H-cyclopenta[a]phenanthren-17-yl)-1-(4-(4-methoxypyridin-2-yl)piperazin-1-yl)pentan-1-one] | > 10 | < 250 |
| C[C@H](COC(=O)N(C)CCO)[C@H]1CC[C@H]2[C@@H]3CC=C4C[C@@H](O)CC[C@]4(C)[C@H]3CC[C@]12C [Example 350, (2S)-2-[(1R,3aS,3bS,7S,9aR,9bS,11aS)-7-hydroxy-9a,11a-dimethyl-1H,2H,3H,3aH,3bH,4H,6H,7H,8H,9H,9aH,9bH,10H,11H,11aH-cyclopenta[a]phenanthren-1-yl]propyl N-(2-hydroxyethyl)-N-methylcarbamate] | > 10 | 250 to 1000 |
| (R)-1-(4-(5,6-dimethoxypyrimidin-4-yl)piperazin-1-yl)-4-((3S,8S,9S,10R,13R,14S,17R)-3-hydroxy-10,13-dimethyl-2,3,4,7,8,9,10,11,12,13,14,15,16,17-tetradecahydro-1H-cyclopenta[a]phenanthren-17-yl)pentan-1-one [Example 620] | > 10 | < 250 |
| C[C@H](CCc1ncccc1CO)[C@H]1CC[C@H]2[C@@H]3CC=C4C[C@@H](O)CC[C@]4(C)[C@H]3CC[C@]12C [Example 454, (3S,8S,9S,10R,13R,14S,17R)-17-((R)-4-(3-(hydroxymethyl)pyridin-2-yl)butan-2-yl)-10,13-dimethyl-2,3,4,7,8,9,10,11,12,13,14,15,16,17-tetradecahydro-1H-cyclopenta[a]phenanthren-3-ol] | < 0.25 | < 250 |
| C[C@H](CCC(=O)N1CCN(C(=O)N(C)CC2CC2)CC1)[C@H]1CC[C@H]2[C@@H]3CC=C4C[C@@H](O)CC[C@]4(C)[C@H]3CC[C@]12C [Example 210, N-(cyclopropylmethyl)-4-((R)-4-((3S,8S,9S,10R,13R,14S,17R)-3-hydroxy-10,13-dimethyl-2,3,4,7,8,9,10,11,12,13,14,15,16,17-tetradecahydro-1H-cyclopenta[a]phenanthren-17-yl)pentanoyl)-N-methylpiperazine-1-carboxamide] | > 10 | < 250 |
| C[C@H](CCc1cncs1)[C@H]1CC[C@H]2[C@@H]3CC=C4C[C@@H](O)CC[C@]4(C)[C@H]3CC[C@]12C [Example 173, (3S,8S,9S,10R,13R,14S,17R)-10,13-dimethyl-17-((R)-4-(thiazol-5-yl)butan-2-yl)-2,3,4,7,8,9,10,11,12,13,14,15,16,17-tetradecahydro-1H-cyclopenta[a]phenanthren-3-ol] | > 10 | 250 to 1000 |
